Measurements as given in patent US20220187282A1, “CARDIOMYOCYTE PROLIFERATION” (The Council of the Queensland Institute of Medical Research, priority 2019, published 2022).
Where two headings read alike, the source gives them in different places.

Key:
[1] = test system: adult cardiomyocytes (MLC2v); experiment: adult mouse intracardiac injection, BrdU+ cardiomyocytes after fix-dissociation; assay type: in vivo; settings: adult mice; for cardiomyocyte DNA synthesis (BrdU+): single dose 10 mg/kg injected into the heart, 3 days
Method: 8-week-old male mice were anesthetized with 4% isoflurane (Bayer) with 0.25 L/min oxygen and then maintained with 2% isoflurane. Once, anaesthetised, each mouse received a s.c. buprenorphine injection (0.05 mg/kg). The animals were intubated and ventilated (Minivent, Harvard Apparatus) (tidal volume=250 respiration rate=133 strokes/min). To access the heart, a lateral thoracotomy was performed at the 4th intercostal space. A Hamilton syringe with a 30-gauge needle was used to inject ˜20 ? l of small molecule solution (final concentration 10 mg/kg) into the myocardium. All compounds were emulsified in Kolliphor/PBS solution (20% Kolliphor® HS 15 (w/v) in PBS, pH 7.4) at a concentration of 20 mg/mL. The chest wall was closed using 4-0 silk suture, the skin closed with 6-0 prolene suture and the mouse removed from anaesthesia. Following anaesthesia, mice were supplied with a s.c. injection of buprenorphine (0.05 mg/kg) and carprofen (10 mg/kg) and allowed to recover. Starting from the day of the surgery, mice received daily 5-bromo-2′-deoxyuridine (BrdU) injections (100 mg/kg, i.p.). […]
Cardiomyocytes were the counted, cytospun onto glass slides and stained with BrdU and MLC2v antibodies, relevant secondary antibodies (see Star Methods Table) and Hoechst (1:1000) to quantify proliferating cardiomyocytes. The AlexaFluor 647 was used to stain BrDU to avoid false positive associated with auto-fluorescence inherent in adult cardiomyocytes in blue-green-yellow channels. To quantify proliferation, 5,000 cardiomyocytes per heart were imaged using a Nikon Spinning Disc confocal microscope using a 20× objective.
Finally, we sought to determine whether compounds 3 and 65 could regulate adult cardiomyocyte proliferation in vivo and whether the mevalonate pathway is critical for these effects. […] Following injection, proliferation was assessed using BrdU pulse-chase for 3 days, followed by fix-dissociation of the hearts, enabling preservation and separation of cardiomyocytes (FIG. 7F) and accurate quantification of BrdU positive cardiomyocytes (FIG. 7G). […]

[2] = pharmacokinetic properties in vivo
kinases [3] = biological target: kinases (Homo sapiens, UniProt P22694); assay type: biochemical; settings: PRKACB FRET-Lantha SP; Test Conc(μM) 1
kinases [4] = biological target: kinases (Homo sapiens, UniProt Q13470); assay type: biochemical; settings: TNK1 FRET-Z-Lyte SP; Test Conc(μM):ATP Conc(μM) 1:200
kinases [5] = biological target: kinases (Homo sapiens, UniProt Q9Y572); assay type: biochemical; settings: RIPK3 FRET-Lantha SP; Test Conc(μM) 1
kinases [6] = biological target: T1, kinases (Homo sapiens, UniProt O15530); assay type: biochemical
T1 sequence (O15530 1-556): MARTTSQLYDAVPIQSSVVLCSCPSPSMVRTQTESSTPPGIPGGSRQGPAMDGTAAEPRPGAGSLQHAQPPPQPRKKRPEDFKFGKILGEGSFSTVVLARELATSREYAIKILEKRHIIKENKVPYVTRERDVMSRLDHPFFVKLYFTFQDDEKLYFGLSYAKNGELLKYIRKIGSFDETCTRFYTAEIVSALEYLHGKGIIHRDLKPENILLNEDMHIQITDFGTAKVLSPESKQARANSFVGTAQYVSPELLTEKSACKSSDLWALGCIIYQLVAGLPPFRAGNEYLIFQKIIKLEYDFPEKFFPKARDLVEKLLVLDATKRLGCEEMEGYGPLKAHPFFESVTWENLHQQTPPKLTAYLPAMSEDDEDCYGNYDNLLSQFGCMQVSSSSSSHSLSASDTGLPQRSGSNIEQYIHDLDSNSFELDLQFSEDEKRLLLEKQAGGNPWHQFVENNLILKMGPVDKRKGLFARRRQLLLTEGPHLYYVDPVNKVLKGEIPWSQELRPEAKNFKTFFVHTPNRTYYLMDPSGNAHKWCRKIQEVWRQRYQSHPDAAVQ

kinases [7] = biological target: kinases (Homo sapiens, UniProt Q9UKE5); assay type: biochemical; settings: TNIK FRET-Lantha SP; Test Conc(μM) 1
kinases [8] = biological target: kinases (Homo sapiens, UniProt Q16584); assay type: biochemical; settings: MAP3K11 (MLK3) FRET-Lantha SP; Test Conc(μM) 1
kinases [9] = biological target: kinases (Homo sapiens, UniProt P06493); assay type: biochemical
kinases [10] = biological target: kinases (Homo sapiens, UniProt Q9BTU6); assay type: biochemical; settings: PI4K2A *Mn* FRET-Adapta SP; Test Conc(μM):ATP Conc(μM) 1:10
kinases [11] = biological target: kinases (Homo sapiens, UniProt P07948); assay type: biochemical; settings: LYN A Hu Phos FRET-Z-Lyte SP; Test Conc(μM):ATP Conc(μM) 1:25
[12] = PDK1 (Direct) FRET-Z-lyte SP, Test Conc(μM):ATP Conc(μM) 1:25
[13] = PDK1 Cascade FRET-Z-Lyte SP, Test Conc(μM):ATP Conc(μM) 1:100
[14] = CDK1/cyclin A2 FRET-Lantha SP, Test Conc(μM) 1
[15] = CDK1/cyclin B FRET-Z-Lyte SP, Test Conc(μM):ATP Conc(μM) 1:25

Sequence of kinases (Homo sapiens, UniProt P06493) (P06493 whole entry): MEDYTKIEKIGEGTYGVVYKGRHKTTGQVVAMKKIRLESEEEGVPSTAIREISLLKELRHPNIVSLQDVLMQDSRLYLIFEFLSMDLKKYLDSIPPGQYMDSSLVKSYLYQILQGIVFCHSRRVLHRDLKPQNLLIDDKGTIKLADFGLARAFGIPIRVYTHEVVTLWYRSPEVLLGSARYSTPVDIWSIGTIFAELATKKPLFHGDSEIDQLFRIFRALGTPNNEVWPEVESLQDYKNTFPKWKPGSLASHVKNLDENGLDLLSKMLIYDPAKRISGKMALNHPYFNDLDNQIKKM
Sequence of kinases (Homo sapiens, UniProt P07948) (P07948 whole entry): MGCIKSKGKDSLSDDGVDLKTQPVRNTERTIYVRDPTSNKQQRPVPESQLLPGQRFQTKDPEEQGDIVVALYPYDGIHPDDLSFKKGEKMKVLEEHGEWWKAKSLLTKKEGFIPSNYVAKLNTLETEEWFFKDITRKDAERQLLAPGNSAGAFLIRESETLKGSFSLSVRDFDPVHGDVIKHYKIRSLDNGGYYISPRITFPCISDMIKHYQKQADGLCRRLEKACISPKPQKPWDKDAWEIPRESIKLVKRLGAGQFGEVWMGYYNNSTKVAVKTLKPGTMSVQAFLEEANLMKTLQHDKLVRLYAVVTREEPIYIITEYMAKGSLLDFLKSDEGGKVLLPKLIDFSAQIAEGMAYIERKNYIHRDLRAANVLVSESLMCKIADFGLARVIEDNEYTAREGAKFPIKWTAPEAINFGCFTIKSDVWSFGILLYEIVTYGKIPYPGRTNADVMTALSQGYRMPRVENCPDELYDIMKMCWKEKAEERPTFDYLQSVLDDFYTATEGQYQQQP
Sequence of kinases (Homo sapiens, UniProt Q16584) (Q16584 whole entry): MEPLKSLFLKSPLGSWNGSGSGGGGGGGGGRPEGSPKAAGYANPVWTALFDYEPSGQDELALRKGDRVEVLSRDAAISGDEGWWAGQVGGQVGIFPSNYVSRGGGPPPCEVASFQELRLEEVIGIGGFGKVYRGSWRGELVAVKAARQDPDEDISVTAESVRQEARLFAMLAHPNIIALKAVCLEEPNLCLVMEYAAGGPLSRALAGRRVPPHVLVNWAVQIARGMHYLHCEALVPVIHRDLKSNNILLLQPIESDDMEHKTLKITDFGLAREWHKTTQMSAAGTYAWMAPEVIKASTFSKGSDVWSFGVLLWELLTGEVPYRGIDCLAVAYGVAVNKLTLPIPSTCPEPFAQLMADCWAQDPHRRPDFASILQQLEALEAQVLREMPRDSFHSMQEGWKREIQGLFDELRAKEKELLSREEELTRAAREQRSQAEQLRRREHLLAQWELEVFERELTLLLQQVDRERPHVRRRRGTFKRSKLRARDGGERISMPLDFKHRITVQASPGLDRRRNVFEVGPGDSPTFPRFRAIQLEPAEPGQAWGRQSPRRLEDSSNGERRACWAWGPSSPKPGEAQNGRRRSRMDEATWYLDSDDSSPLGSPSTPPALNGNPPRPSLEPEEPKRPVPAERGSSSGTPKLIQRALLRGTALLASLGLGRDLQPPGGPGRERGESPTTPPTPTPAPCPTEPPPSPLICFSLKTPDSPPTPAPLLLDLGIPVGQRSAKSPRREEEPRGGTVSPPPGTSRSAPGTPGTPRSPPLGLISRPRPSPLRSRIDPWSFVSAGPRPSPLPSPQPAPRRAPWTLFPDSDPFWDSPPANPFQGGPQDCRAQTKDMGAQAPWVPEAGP
Sequence of kinases (Homo sapiens, UniProt Q13470) (Q13470 whole entry): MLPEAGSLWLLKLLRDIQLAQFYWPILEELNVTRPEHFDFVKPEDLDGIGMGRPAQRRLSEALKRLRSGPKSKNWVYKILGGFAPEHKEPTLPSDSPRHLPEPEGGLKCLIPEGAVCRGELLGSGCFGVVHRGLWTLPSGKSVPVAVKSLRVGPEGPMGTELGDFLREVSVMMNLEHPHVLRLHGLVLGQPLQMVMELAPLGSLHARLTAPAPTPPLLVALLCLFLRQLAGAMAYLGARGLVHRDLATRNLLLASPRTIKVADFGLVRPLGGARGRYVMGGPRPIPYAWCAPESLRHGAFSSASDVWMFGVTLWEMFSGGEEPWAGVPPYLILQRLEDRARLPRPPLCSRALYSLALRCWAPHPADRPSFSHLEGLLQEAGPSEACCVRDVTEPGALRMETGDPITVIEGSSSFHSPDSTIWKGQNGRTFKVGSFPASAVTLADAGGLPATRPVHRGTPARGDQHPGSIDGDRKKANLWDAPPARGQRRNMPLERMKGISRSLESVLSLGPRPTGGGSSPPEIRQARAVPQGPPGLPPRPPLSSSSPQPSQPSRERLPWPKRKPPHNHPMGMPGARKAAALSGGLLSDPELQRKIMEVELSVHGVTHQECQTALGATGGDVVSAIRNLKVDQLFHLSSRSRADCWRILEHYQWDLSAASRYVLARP
Sequence of kinases (Homo sapiens, UniProt Q9Y572) (Q9Y572 whole entry): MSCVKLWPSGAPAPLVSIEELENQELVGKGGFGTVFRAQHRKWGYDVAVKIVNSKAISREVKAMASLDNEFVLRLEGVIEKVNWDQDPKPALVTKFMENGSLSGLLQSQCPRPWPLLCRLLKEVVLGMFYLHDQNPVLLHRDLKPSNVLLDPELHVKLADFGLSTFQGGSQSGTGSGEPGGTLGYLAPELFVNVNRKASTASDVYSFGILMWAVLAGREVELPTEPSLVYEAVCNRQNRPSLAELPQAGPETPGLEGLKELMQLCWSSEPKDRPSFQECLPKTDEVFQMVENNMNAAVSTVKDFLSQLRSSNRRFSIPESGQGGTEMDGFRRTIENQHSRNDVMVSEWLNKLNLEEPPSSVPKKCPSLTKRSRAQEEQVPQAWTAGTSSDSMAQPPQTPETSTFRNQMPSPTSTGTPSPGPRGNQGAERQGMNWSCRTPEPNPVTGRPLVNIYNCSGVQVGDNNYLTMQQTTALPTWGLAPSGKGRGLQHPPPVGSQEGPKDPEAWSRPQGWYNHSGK
Sequence of kinases (Homo sapiens, UniProt Q9BTU6) (Q9BTU6 whole entry): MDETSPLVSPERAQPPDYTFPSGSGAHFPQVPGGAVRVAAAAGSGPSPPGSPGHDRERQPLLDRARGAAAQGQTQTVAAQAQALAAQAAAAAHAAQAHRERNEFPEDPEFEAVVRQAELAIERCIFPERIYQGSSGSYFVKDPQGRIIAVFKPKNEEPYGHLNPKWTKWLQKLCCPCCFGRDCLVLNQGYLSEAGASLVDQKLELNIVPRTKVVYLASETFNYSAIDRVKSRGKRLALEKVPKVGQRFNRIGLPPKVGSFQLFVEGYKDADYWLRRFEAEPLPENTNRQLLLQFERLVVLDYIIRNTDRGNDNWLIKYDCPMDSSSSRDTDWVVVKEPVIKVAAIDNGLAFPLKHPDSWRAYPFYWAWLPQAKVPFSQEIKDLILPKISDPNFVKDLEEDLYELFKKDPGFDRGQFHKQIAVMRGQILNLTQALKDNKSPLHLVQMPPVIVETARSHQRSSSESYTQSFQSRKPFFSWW
Sequence of kinases (Homo sapiens, UniProt Q9UKE5) (Q9UKE5 whole entry): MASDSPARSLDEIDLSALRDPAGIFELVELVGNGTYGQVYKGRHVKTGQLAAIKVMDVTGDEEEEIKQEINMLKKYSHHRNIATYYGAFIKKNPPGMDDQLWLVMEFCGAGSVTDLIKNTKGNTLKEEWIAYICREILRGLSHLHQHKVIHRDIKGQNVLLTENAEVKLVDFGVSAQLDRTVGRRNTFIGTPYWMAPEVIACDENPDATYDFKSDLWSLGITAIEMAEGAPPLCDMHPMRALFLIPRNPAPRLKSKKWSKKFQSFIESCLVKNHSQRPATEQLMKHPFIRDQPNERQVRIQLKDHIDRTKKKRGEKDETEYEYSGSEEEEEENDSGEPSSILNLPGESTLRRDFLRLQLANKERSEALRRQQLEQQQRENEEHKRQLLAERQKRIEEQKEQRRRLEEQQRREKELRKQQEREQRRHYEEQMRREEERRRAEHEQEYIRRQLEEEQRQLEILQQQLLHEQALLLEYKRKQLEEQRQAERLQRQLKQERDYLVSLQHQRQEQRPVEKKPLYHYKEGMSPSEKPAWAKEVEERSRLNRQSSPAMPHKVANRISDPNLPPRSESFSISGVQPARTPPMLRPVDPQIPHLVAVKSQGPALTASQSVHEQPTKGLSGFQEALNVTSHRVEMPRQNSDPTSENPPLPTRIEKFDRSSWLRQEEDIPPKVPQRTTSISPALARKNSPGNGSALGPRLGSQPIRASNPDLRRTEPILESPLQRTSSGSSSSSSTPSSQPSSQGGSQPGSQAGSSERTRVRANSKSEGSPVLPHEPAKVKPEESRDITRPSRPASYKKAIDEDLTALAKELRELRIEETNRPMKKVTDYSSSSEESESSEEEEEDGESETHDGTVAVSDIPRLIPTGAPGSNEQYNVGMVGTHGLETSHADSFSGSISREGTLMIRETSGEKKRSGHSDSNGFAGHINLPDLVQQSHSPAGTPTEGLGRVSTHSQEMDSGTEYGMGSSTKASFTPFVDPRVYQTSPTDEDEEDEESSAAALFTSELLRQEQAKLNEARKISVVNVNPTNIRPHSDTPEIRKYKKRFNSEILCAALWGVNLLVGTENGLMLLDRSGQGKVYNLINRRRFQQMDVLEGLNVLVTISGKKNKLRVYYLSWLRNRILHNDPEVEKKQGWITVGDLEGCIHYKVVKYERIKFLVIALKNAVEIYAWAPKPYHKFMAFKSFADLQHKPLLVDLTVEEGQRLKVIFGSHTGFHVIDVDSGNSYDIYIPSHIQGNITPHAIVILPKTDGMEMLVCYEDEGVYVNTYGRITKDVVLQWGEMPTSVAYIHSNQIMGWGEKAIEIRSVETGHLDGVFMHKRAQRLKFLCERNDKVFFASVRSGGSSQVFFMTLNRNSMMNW

| Compound | DNA synthesis response with simvastatin ([1]; 10 mg/kg intracardiac plus simvastatin 20 mg/kg s.c. daily) | cardiomyocyte DNA synthesis (BrdU+) [1] | pharmacokinetic properties [2] | Mean Inhib (%) (kinases [3]) | Mean Inhib (%) (kinases [4]) | Mean Inhib (%) (kinases [5]) | Mean Inhib (%) (kinases [6]; [12]) | Mean Inhib (%) (kinases [6]; [13]) | Mean Inhib (%) (kinases [7]) | Mean Inhib (%) (kinases [8]) | Mean Inhib (%) (kinases [9]; [14]) | Mean Inhib (%) (kinases [9]; [15]) | Mean Inhib (%) (kinases [10]) | Mean Inhib (%) (kinases [11]) |
| --- | --- | --- | --- | --- | --- | --- | --- | --- | --- | --- | --- | --- | --- | --- |
| Cc1ccc(NC(=O)c2ccnc(N3CCOCC3)c2)cc1Nc1ccnc(N2CC(C)OC(C)C2)n1 (stereo not drawn) [compound 3] | blocked | significantly increased | poor | 2.3% | −8.8% | 20.9% | 0.4% | 3.7% | 4.1% | −0.7% | −1.0% | 3.8% | −2.4% | 6.3% |
| Cc1cc(Oc2ccnc(Nc3ccc(S(N)(=O)=O)cc3)c2)c(-c2ccccn2)nc1C [compound 65] |  | significantly increased | poor | 10.9% | −4.5% | 76.6% | 6.9% | 9.4% | 58.4% | −0.8% | 25.4% | 3.2% | −2.9% | 49.5% |
